Reference: ChEMBL document CHEMBL1152560, “Substituted 2-arylbenzothiazoles as kinase inhibitors: hit-to-lead optimization” (Bioorg Med Chem, 2009)

Key:
[1] = target: Glycogen synthase kinase-3 beta (Homo sapiens) (UniProt P49841); assay: Residual activity of GSK3-beta at 0.1 uM by microplate scintillation counting
[2] = target: CDK8/Cyclin C (Homo sapiens) (UniProt P49336+P24863); assay: Residual activity of CDK8/Cyclin C at 10 uM by microplate scintillation counting; assay type: protein-complex assay
[3] = target: T1, Interleukin-1 receptor-associated kinase 4 (Homo sapiens) (UniProt Q9NWZ3); assay: Residual activity of IRAK4 at 10 uM by microplate scintillation counting
T1 sequence (whole entry): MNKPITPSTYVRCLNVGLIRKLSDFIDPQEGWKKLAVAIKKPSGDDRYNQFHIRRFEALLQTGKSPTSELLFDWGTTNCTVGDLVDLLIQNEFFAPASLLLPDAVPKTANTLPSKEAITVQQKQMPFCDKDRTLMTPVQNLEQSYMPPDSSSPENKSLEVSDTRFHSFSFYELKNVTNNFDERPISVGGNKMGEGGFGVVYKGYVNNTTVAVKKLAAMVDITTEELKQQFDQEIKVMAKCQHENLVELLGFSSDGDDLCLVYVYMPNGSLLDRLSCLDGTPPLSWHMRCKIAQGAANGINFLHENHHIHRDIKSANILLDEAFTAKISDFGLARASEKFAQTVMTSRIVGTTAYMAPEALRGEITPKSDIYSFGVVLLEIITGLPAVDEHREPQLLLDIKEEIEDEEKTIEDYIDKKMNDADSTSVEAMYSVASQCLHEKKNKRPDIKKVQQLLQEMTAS

[4] = target: Maternal embryonic leucine zipper kinase (Homo sapiens) (UniProt Q14680); assay: Residual activity of MELK at 10 uM by microplate scintillation counting
[5] = target: CDC42BPA protein (Homo sapiens) (UniProt B9EGA7); assay: Residual activity of CDC42BPA at 0.1 uM by microplate scintillation counting
Sequence of CDC42BPA protein (Homo sapiens) (B9EGA7 as listed by the source): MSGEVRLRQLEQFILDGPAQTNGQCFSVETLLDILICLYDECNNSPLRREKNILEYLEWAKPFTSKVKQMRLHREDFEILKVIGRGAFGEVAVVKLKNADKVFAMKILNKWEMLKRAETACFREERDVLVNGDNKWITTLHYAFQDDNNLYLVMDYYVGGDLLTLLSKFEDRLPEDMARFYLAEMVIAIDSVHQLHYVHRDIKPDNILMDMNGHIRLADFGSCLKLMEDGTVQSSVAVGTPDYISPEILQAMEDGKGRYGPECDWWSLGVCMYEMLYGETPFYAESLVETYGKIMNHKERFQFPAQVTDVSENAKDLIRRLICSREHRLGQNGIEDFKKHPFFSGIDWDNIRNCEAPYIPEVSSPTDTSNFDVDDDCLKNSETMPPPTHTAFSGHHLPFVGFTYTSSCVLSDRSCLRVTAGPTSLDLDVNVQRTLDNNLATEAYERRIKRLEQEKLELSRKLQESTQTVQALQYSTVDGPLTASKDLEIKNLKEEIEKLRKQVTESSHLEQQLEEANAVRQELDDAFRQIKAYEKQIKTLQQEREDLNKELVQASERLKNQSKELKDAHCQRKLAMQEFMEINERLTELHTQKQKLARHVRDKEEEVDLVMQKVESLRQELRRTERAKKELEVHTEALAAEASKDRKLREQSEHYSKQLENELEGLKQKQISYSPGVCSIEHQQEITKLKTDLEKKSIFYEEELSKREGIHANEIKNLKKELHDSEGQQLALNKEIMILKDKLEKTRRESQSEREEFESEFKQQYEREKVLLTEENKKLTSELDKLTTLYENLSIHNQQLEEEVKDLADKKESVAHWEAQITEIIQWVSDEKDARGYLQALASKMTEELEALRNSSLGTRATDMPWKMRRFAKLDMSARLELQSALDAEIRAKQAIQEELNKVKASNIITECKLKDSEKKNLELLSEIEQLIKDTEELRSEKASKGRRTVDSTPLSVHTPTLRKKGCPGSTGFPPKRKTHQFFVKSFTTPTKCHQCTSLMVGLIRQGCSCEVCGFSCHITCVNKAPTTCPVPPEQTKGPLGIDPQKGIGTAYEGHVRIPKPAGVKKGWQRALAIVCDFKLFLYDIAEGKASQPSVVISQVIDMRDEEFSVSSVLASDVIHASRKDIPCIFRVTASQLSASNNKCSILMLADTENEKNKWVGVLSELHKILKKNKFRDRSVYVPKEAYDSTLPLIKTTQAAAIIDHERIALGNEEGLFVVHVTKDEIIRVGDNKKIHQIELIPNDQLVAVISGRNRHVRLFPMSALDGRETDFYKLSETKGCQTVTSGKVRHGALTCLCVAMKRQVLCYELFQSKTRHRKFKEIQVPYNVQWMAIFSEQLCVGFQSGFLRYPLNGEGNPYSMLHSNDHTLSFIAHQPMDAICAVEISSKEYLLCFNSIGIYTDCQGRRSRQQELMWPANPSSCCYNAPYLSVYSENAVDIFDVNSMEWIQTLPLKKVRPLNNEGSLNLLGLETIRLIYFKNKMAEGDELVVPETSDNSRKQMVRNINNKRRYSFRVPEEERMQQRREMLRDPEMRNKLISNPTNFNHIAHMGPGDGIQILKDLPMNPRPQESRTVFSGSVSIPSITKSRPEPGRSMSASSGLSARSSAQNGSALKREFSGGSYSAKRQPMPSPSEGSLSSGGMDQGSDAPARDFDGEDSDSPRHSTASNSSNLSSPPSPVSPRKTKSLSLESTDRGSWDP

[6] = target: Cyclin-dependent kinase 16 (Homo sapiens) (UniProt Q00536); assay: Residual activity of PCTAIRE1 at 10 uM by microplate scintillation counting
Sequence of Cyclin-dependent kinase 16 (Homo sapiens) (Q00536 whole entry): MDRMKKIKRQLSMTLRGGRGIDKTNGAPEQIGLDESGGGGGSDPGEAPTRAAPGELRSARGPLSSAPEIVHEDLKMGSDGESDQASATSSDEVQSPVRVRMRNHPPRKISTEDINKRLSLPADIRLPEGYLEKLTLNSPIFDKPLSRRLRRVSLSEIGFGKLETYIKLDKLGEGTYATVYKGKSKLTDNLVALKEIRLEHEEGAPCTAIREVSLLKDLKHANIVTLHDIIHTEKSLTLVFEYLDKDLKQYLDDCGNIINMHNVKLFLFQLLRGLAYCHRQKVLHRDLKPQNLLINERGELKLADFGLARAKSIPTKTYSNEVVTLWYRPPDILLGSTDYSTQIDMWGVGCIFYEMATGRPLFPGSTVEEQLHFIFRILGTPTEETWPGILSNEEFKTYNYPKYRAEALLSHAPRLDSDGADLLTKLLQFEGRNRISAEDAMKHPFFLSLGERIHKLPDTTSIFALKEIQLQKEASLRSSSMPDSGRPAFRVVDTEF

[7] = target: Tyrosine-protein kinase JAK2 (Homo sapiens) (UniProt O60674); assay: Residual activity of JAK2 at 0.1 uM by microplate scintillation counting
Sequence of Tyrosine-protein kinase JAK2 (Homo sapiens) (O60674 whole entry): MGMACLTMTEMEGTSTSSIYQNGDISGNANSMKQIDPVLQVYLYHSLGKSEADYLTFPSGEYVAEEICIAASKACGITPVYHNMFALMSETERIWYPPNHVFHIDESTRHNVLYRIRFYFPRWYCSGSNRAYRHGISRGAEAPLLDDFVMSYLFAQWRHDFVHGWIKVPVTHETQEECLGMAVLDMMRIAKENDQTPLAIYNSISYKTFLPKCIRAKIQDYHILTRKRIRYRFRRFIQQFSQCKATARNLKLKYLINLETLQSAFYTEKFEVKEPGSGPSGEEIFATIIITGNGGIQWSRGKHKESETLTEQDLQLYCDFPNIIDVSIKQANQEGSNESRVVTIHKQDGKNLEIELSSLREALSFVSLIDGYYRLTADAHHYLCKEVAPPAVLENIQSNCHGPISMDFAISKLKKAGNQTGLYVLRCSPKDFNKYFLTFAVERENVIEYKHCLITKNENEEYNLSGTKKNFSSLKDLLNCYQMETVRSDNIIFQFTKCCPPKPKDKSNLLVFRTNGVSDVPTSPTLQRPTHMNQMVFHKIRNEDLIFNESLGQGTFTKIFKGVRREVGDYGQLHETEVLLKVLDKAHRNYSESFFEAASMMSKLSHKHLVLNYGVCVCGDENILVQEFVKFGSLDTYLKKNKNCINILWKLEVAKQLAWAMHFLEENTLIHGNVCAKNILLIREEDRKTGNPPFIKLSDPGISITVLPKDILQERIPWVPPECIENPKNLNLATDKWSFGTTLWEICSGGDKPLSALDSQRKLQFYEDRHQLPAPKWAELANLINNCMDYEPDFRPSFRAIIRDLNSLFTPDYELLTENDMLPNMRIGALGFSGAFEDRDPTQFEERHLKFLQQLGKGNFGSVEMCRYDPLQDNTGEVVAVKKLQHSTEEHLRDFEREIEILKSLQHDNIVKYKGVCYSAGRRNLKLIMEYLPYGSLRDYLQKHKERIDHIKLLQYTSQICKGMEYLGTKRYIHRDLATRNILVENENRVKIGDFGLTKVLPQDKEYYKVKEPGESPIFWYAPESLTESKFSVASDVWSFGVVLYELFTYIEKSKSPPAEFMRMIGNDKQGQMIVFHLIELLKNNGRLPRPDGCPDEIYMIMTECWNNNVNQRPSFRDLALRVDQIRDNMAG

[8] = target: Cyclin-dependent kinase 7/ cyclin H (Homo sapiens) (UniProt P51946+P50613); assay: Residual activity of CDK7/CyclinH/MAT1 at 10 uM by microplate scintillation counting; assay type: protein-complex assay
[9] = target: Tyrosine-protein kinase FRK (Homo sapiens) (UniProt P42685); assay: Residual activity of FRK at 1 uM by microplate scintillation counting
Sequence of Tyrosine-protein kinase FRK (Homo sapiens) (P42685 whole entry): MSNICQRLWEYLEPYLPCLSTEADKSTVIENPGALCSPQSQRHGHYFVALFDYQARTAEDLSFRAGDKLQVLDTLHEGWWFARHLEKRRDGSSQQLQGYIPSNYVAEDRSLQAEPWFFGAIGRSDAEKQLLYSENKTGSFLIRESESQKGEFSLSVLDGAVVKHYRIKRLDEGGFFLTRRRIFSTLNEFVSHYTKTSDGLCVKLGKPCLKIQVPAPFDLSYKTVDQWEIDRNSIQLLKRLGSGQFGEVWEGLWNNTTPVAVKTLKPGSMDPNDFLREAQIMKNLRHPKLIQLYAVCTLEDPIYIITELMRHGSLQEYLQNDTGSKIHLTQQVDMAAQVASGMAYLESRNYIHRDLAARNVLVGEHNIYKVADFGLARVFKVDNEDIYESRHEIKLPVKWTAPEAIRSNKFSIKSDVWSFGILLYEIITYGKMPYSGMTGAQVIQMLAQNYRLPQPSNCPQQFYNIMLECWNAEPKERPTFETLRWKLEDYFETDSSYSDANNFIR

[10] = target: T2, Inhibitor of nuclear factor kappa-B kinase subunit epsilon (Homo sapiens) (UniProt Q14164); assay: Residual activity of IKKepsilon at 10 uM by microplate scintillation counting
T2 sequence (whole entry): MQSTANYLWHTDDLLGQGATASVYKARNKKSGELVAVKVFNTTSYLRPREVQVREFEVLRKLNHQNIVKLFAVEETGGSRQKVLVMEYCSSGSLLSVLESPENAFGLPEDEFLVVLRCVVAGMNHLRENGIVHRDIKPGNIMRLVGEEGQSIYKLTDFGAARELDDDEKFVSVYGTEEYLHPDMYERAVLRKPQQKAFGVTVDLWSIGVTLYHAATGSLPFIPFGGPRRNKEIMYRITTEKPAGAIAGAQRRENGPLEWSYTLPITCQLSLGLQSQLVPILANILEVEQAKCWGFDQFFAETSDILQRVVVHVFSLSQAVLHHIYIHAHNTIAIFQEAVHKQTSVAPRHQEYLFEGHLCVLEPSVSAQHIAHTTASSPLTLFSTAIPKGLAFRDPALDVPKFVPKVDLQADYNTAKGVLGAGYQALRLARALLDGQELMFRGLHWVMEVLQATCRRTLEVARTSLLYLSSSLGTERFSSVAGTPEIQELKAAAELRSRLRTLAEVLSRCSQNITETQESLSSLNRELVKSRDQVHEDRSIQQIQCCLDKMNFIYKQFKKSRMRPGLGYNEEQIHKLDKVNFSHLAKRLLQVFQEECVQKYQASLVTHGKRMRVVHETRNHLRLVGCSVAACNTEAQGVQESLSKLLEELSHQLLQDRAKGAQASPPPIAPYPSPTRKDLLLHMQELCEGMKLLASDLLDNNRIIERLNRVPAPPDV

[11] = target: NT-3 growth factor receptor (Homo sapiens) (UniProt Q16288); assay: Residual activity of TRK-C at 10 uM by microplate scintillation counting
[12] = target: Protein kinase C theta type (Homo sapiens) (UniProt Q04759); assay: Residual activity of PKCtheta at 1 uM by microplate scintillation counting
Sequence of Protein kinase C theta type (Homo sapiens) (Q04759 whole entry, looked up): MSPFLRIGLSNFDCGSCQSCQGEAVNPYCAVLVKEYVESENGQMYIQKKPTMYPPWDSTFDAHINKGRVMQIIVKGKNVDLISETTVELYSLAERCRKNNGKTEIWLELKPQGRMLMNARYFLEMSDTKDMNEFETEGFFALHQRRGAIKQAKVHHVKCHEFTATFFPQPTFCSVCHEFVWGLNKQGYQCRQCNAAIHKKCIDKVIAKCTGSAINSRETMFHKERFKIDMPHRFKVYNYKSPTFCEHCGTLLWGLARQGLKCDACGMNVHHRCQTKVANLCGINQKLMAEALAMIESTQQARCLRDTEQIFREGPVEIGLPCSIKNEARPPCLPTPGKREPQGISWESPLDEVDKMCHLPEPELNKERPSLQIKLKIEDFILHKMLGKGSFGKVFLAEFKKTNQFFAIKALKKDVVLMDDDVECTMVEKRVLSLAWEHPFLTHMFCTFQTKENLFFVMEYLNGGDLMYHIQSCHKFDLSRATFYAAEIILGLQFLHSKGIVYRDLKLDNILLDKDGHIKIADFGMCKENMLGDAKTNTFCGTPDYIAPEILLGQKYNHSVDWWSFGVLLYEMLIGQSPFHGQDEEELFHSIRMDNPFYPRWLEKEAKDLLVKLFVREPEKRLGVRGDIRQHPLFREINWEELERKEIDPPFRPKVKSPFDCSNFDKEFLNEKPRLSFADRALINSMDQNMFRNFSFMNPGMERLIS

[13] = target: Maternal embryonic leucine zipper kinase (Homo sapiens) (UniProt Q14680); assay: Residual activity of MELK at 0.1 uM by microplate scintillation counting
[14] = target: T3, Ephrin type-B receptor 2 (Homo sapiens) (UniProt P29323); assay: Residual activity of EPHB2 at 10 uM by microplate scintillation counting
T3 sequence (whole entry): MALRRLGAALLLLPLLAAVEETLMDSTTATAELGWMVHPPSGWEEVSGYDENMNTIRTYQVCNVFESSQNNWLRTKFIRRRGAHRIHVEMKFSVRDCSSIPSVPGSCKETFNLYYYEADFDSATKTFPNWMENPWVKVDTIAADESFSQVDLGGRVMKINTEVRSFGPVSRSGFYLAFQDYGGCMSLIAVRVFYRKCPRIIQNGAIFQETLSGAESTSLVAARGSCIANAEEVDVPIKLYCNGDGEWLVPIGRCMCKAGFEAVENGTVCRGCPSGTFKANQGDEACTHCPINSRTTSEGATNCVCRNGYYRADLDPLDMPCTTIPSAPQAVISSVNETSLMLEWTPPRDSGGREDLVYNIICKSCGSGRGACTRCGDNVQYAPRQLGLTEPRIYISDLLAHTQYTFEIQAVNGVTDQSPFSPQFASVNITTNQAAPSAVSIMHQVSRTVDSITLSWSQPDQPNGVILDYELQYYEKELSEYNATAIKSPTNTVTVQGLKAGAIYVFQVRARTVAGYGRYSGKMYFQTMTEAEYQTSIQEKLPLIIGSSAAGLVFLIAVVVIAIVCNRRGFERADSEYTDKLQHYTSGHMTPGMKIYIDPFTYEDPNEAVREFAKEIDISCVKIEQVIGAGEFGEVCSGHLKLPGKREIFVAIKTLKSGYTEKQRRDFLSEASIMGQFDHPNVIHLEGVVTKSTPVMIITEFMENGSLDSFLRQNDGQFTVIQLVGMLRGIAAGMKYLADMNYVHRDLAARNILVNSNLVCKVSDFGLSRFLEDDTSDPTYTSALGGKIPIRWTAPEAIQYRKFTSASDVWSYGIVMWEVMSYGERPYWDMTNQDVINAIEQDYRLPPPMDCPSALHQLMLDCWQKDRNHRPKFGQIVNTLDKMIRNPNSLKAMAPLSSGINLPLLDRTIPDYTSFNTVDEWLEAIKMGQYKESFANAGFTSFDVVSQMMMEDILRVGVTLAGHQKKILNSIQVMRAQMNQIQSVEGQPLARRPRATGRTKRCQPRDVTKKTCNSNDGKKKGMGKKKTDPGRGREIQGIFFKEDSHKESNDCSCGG

Sequence of Glycogen synthase kinase-3 beta (Homo sapiens) (P49841 whole entry, looked up): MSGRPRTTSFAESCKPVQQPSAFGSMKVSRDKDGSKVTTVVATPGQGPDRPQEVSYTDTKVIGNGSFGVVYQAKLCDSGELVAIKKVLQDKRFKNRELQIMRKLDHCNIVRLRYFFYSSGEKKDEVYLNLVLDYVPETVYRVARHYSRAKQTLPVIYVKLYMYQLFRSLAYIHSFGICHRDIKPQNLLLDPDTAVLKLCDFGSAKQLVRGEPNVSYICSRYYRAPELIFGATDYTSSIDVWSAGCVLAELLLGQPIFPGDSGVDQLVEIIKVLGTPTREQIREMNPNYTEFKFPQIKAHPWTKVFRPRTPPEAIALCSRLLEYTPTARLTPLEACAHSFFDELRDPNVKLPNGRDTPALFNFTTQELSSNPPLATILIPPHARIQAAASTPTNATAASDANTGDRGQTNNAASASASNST

residual activity [1] [%]	residual activity [2] [%]	residual activity [3] [%]	residual activity [4] [%]	residual activity [5] [%]	residual activity [6] [%]	residual activity [7] [%]	residual activity [8] [%]	residual activity [9] [%]	residual activity [10] [%]	residual activity [11] [%]	residual activity [12] [%]	residual activity [13] [%]	residual activity [14] [%]	Structure (SMILES)
96	88	36	98	112	163	90	130	84	101	188	113	111	18	COc1cc2c(Oc3ccc(-c4nc5ccccc5s4)cc3)ncnc2cc1OCCCN1CCN(C)CC1
86	75	34	77	86	153	102	138	90	76	132	100	60	16	COc1cc2c(Oc3ccc(-c4nc5ccccc5s4)cc3F)ncnc2cc1OCCCN1CCN(C)CC1
98	82	26	85	104	126	92	116	95	99	166	111	34	35	COc1cc2c(Oc3ccc(-c4nc5ccccc5s4)cc3)ncnc2cc1OCCCN1CCCC1
